Results published in US7728128B2, “Dibenzo[c,h][1,5]naphthyridines and their use as DNA probes” (Institut National de la Sante et de la Recherche Medicate …, priority 2006, dated 2010).
Converted amounts (≈) assume the structure as drawn.

Assay: solubility in DMSO
Assay type: physicochemical
Settings: organic solvent or mixture, free base, read-out: solubility (saturation)
Description: Solubility of compound I: In DMSO, compound I (free base) is soluble until saturation at ˜7 mM. As much as 1 volume of 7 mM, compound I in DMSO mixed with 7 volumes of H2O forms a turbid solution (0.875 mM compound I in ˜12% DMSO). Upon sonication for 1 min, this solution becomes limpid and can be further dissolved in aqueous solutions.

With `COc1ccc2c(c1)c(C)nc1c3ccc(OC)cc3c(NCCCN(C)C)nc21` [Compound I, N′-(2,8-dimethoxy-12-methyl-dibenzo[c,h][1,5]naphthyridin-6-yl)-N,N-dimethyl-propane-1,3-diamine] the solubility was about 7 mM (≈ 2830 µg/mL).
